Source: PMC12090182, “Repurposing of the RIPK1-Selective Benzo[1,4]oxazepin-4-one Scaffold for the Development of a Type III LIMK1/2 Inhibitor” (ACS Chemical Biology, 2025)

Columns and labels:
Assay in all cases: scanMAX KINOMEscan (Eurofins)
Assay type in all cases: binding
[1] = target: MAST1 (Homo sapiens, UniProt Q9Y2H9); conditions: 1000 nM, read-out: Percent Control
From the text: (§1) Supplement cb5c00097_si_002.xlsx, sheet "Table S6 (Eurofins Selectivity)" | column: Percent Control

[2] = target: IRAK4 (Homo sapiens, UniProt Q9NWZ3); conditions: compound concentration 100 nM; Entrez IRAK4; read-out: Percent Control
From the text: as §1

[3] = target: GRK3 (Homo sapiens, UniProt P35626); conditions: 1000 nM, read-out: Percent Control
From the text: as §1

[4] = target: YANK2 (Homo sapiens, UniProt Q9NY57); conditions: compound concentration 100 nM; Entrez STK32B; read-out: Percent Control
Chain of YANK2 (Q9NY57 whole entry): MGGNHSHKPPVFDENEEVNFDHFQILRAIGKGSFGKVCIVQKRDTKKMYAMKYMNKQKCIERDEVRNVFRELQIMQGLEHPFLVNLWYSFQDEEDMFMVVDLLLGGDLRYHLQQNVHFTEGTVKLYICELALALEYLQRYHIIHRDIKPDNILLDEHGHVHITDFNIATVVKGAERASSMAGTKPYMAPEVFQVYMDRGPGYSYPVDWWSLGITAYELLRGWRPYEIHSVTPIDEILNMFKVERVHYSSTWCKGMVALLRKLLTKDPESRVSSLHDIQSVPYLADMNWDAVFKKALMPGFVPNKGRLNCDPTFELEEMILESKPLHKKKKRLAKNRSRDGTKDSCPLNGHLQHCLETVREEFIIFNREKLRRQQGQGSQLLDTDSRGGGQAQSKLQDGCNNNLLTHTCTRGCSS
From the text: as §1

[5] = target: PCTK3 (Homo sapiens, UniProt Q07002); conditions: 1000 nM, read-out: Percent Control
From the text: as §1

[6] = target: ABL1-phosphorylated (Homo sapiens, UniProt P00519); conditions: read-out: Percent Control
Chain of ABL1-phosphorylated (P00519 whole entry): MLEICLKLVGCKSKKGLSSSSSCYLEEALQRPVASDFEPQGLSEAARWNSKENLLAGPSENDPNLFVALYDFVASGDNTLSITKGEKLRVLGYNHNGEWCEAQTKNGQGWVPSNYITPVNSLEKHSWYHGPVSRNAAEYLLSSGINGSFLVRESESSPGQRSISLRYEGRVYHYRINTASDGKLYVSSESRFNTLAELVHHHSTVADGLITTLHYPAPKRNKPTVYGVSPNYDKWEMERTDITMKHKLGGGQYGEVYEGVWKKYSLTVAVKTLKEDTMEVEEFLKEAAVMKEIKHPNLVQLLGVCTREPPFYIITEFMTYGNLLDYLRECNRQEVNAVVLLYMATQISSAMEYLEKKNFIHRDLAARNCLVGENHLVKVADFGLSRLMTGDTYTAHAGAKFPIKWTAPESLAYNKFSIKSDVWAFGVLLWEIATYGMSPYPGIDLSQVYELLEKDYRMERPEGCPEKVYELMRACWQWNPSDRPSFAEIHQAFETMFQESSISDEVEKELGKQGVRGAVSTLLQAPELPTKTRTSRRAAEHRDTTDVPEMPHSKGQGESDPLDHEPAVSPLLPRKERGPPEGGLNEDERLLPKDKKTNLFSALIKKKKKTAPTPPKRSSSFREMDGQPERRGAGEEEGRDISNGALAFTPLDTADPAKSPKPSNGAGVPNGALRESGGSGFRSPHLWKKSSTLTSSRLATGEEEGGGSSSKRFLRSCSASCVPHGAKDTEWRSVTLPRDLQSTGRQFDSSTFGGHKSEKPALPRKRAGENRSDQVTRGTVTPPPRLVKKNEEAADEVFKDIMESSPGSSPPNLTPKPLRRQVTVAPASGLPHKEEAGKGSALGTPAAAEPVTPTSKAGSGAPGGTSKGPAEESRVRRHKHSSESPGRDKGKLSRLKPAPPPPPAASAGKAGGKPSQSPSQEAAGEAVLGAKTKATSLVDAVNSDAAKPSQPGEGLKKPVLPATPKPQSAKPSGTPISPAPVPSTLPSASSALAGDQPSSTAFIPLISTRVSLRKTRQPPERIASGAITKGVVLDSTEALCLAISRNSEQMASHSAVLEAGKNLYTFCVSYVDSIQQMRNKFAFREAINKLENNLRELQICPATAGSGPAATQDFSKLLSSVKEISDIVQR
From the text: as §1

[7] = target: ERBB4 (Homo sapiens, UniProt Q15303); conditions: 1000 nM, read-out: Percent Control
From the text: as §1

[8] = target: RSK2(Kin.Dom.1-N-terminal) (Homo sapiens, UniProt P51812); conditions: compound concentration 100 nM; Entrez RPS6KA3; read-out: Percent Control
Chain of RSK2(Kin.Dom.1-N-terminal) (P51812 68-397): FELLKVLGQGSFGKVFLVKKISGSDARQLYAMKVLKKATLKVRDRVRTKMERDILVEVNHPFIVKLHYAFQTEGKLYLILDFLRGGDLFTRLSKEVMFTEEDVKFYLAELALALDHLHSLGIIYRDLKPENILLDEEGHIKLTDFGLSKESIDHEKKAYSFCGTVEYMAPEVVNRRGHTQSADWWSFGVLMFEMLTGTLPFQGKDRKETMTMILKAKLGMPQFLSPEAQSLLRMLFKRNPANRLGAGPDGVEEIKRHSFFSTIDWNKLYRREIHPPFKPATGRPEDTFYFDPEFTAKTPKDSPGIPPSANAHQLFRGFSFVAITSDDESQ
From the text: as §1

[9] = target: PAK6 (Homo sapiens, UniProt Q9NQU5); conditions: compound concentration 100 nM; Entrez PAK6; read-out: Percent Control
Chain of PAK6 (Q9NQU5 whole entry): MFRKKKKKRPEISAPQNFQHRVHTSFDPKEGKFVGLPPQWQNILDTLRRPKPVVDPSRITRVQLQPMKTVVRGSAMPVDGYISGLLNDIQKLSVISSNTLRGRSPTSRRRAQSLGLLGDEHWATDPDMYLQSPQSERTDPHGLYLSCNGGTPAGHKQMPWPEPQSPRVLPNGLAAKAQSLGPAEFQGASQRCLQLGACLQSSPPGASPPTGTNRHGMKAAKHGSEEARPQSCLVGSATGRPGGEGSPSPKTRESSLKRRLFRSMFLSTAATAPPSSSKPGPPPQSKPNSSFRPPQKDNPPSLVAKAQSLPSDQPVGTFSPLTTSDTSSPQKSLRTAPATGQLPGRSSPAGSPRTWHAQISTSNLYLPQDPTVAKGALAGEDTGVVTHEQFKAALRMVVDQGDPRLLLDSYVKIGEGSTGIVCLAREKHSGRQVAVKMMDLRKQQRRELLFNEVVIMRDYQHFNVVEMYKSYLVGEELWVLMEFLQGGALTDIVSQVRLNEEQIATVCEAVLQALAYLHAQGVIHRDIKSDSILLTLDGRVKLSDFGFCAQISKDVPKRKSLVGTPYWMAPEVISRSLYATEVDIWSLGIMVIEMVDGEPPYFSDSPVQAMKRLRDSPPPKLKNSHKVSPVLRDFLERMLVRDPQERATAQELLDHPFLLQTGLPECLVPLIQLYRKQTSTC
From the text: as §1

[10] = target: MEK1 (Homo sapiens, UniProt Q02750); conditions: compound concentration 100 nM; Entrez MAP2K1; read-out: Percent Control
Chain of MEK1 (Q02750 whole entry): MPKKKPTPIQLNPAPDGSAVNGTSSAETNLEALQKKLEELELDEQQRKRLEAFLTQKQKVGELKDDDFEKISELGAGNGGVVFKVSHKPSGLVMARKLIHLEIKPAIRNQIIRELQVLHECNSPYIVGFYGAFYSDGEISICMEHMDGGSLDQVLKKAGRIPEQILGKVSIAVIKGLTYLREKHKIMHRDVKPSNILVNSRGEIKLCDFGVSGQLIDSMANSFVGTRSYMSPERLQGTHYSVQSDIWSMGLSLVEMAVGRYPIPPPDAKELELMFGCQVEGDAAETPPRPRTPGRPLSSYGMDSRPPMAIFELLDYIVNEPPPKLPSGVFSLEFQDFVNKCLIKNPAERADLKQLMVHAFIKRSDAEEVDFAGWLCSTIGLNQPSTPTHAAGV
From the text: as §1

[11] = target: NDR1 (Homo sapiens, UniProt Q15208); conditions: 1000 nM, read-out: Percent Control
From the text: as §1

[12] = target: ULK1 (Homo sapiens, UniProt O75385); conditions: compound concentration 100 nM; Entrez ULK1; read-out: Percent Control
From the text: as §1

[13] = target: MET (Homo sapiens, UniProt P08581); conditions: 1000 nM, read-out: Percent Control
From the text: as §1

[14] = target: TYK2(JH2domain-pseudokinase) (Homo sapiens, UniProt P29597); conditions: compound concentration 100 nM; Entrez TYK2; read-out: Percent Control
From the text: as §1

[15] = target: PKMYT1 (Homo sapiens, UniProt Q99640); conditions: 1000 nM, read-out: Percent Control
From the text: as §1

[16] = target: ERK8 (Homo sapiens, UniProt Q8TD08); conditions: read-out: Percent Control
Chain of ERK8 (Q8TD08 whole entry): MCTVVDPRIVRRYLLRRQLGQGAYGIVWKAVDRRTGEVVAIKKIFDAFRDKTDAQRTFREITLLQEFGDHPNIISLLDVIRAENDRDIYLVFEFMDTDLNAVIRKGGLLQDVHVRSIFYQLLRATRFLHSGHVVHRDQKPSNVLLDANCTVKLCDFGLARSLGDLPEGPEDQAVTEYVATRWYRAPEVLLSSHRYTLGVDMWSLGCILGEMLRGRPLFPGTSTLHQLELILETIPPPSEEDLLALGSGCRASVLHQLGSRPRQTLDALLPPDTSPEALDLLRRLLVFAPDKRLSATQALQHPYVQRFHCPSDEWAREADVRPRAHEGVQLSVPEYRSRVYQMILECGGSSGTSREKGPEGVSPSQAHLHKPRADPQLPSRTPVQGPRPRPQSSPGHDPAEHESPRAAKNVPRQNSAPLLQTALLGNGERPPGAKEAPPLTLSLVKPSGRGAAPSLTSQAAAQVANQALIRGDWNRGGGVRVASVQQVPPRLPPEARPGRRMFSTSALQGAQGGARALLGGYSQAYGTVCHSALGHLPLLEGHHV
From the text: as §1

[17] = target: BRK (Homo sapiens, UniProt Q13882); conditions: 1000 nM, read-out: Percent Control
From the text: as §1

[18] = target: DYRK1A (Homo sapiens, UniProt Q13627); conditions: 1000 nM, read-out: Percent Control
From the text: as §1

[19] = target: JNK1 (Homo sapiens, UniProt P45983); conditions: compound concentration 100 nM; Entrez MAPK8; read-out: Percent Control
From the text: as §1

[20] = target: ADCK4 (Homo sapiens, UniProt Q96D53); conditions: 1000 nM, read-out: Percent Control
From the text: as §1

[21] = target: SgK110 (Homo sapiens, UniProt P0C264); conditions: compound concentration 100 nM; Entrez SgK110; read-out: Percent Control
From the text: as §1

[22] = target: p38-gamma (Homo sapiens, UniProt P53778); conditions: 1000 nM, read-out: Percent Control
From the text: as §1

[23] = target: WNK4 (Homo sapiens, UniProt Q96J92); conditions: compound concentration 100 nM; Entrez WNK4; read-out: Percent Control
From the text: as §1

[24] = target: ARK5 (Homo sapiens, UniProt O60285); conditions: read-out: Percent Control
Chain of ARK5 (O60285 whole entry): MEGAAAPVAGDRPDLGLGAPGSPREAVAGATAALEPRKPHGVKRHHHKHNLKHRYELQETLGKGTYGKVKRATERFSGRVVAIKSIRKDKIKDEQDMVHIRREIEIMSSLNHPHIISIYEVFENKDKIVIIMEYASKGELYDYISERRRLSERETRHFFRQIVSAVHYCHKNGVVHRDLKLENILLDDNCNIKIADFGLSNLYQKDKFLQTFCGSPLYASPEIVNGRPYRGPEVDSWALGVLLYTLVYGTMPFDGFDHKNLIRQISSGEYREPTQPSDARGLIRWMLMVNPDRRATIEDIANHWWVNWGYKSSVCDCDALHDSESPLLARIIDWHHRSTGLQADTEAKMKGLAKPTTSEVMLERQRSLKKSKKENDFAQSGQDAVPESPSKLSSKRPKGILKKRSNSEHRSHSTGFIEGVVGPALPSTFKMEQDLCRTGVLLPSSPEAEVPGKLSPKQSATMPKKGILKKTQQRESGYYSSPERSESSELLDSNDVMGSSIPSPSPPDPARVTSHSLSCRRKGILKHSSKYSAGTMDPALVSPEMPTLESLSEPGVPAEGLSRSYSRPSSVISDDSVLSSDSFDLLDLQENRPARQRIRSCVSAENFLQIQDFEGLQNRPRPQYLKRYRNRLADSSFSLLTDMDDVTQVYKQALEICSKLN
From the text: as §1

[25] = target: GRK4 (Homo sapiens, UniProt P32298); conditions: 1000 nM, read-out: Percent Control
From the text: as §1

[26] = target: MAP4K3 (Homo sapiens, UniProt Q8IVH8); conditions: 1000 nM, read-out: Percent Control
From the text: as §1

[27] = target: CSK (Homo sapiens, UniProt P41240); conditions: 1000 nM, read-out: Percent Control
From the text: as §1

[28] = target: ICK (Homo sapiens, UniProt Q9UPZ9); conditions: 1000 nM, read-out: Percent Control
Chain of ICK (Q9UPZ9 whole entry): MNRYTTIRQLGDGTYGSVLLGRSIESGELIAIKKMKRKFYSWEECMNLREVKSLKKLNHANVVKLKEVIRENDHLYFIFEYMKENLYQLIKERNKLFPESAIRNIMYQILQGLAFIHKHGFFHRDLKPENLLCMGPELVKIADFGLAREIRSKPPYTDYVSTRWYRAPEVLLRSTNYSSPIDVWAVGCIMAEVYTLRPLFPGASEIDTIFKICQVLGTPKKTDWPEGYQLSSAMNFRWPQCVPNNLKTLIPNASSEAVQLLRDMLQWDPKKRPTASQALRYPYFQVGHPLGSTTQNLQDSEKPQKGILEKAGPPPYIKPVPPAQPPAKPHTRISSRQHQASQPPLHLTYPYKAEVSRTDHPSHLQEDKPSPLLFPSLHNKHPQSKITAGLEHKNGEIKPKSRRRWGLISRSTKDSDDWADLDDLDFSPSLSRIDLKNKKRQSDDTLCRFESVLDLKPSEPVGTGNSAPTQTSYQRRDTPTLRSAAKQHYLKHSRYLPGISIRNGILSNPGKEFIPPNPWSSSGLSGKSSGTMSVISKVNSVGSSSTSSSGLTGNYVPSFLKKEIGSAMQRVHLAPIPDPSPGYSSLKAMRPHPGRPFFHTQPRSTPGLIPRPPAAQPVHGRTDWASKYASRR
From the text: as §1

[29] = target: RSK4(Kin.Dom.1-N-terminal) (Homo sapiens, UniProt Q9UK32); conditions: compound concentration 100 nM; Entrez RPS6KA6; read-out: Percent Control
From the text: as §1

[30] = target: BIKE (Homo sapiens, UniProt Q9NSY1); conditions: 1000 nM, read-out: Percent Control
From the text: as §1

[31] = target: TYK2(JH1domain-catalytic) (Homo sapiens, UniProt P29597); conditions: 1000 nM, read-out: Percent Control
From the text: as §1

[32] = target: MST3 (Homo sapiens, UniProt Q9Y6E0); conditions: 1000 nM, read-out: Percent Control
From the text: as §1

[33] = target: NEK1 (Homo sapiens, UniProt Q96PY6); conditions: compound concentration 100 nM; Entrez NEK1; read-out: Percent Control
From the text: as §1

[34] = target: CDK4-cyclinD1 (Homo sapiens, UniProt P11802); conditions: 1000 nM, read-out: Percent Control
From the text: as §1

[35] = target: TAOK3 (Homo sapiens, UniProt Q9H2K8); conditions: 1000 nM, read-out: Percent Control
From the text: as §1

Q: `CN1C(=O)[C@@H](N2CCc3c(nn(Cc4ccccc4)c3C(N)=O)C2=O)COc2cc(Cl)ccc21` [Compound 10, (S)-2-benzyl-6-(8-chloro-5-methyl-4-oxo-2,3,4,5-tetrahydrobenzo[b][1,4]oxazepin-3-yl)-7-oxo-4,5,6,7-tetrahydro-2H-pyrazolo[3,4-c]pyridine-3-carboxamide] was tested. Which remaining binding at 1 µM [1] did it give?
A: 75%

Q: What about the remaining binding at 0.1 µM [2] of the same molecule?
A: 100%

Q: And the remaining binding at 1 µM [3]?
A: 71%

Q: What about the remaining binding at 0.1 µM [4] of the same molecule?
A: 99%

Q: What about the remaining binding at 1 µM [5] of the same molecule?
A: 88%

Q: And the remaining binding at 1 µM ([6]; 1000 nM)?
A: 100%

Q: And the remaining binding at 0.1 µM ([6]; compound concentration 100 nM, Entrez ABL1)?
A: 97%

Q: What about the remaining binding at 1 µM [7] of the same molecule?
A: 87%

Q: And the remaining binding at 0.1 µM [8]?
A: 100%

Q: And the remaining binding at 0.1 µM [9]?
A: 93%

Q: And the remaining binding at 0.1 µM [10]?
A: 91%

Q: What about the remaining binding at 1 µM [11] of the same molecule?
A: 97%

Q: And the remaining binding at 0.1 µM [12]?
A: 100%

Q: What about the remaining binding at 1 µM [13] of the same molecule?
A: 94%

Q: And the remaining binding at 0.1 µM [14]?
A: 100%

Q: And the remaining binding at 1 µM [15]?
A: 95%

Q: And the remaining binding at 1 µM ([16]; 1000 nM)?
A: 100%

Q: What about the remaining binding at 0.1 µM ([16]; compound concentration 100 nM, Entrez MAPK15) of the same molecule?
A: 82%

Q: What about the remaining binding at 1 µM [17] of the same molecule?
A: 87%

Q: And the remaining binding at 1 µM [18]?
A: 93%

Q: What about the remaining binding at 0.1 µM [19] of the same molecule?
A: 79%

Q: And the remaining binding at 1 µM [20]?
A: 80%

Q: What about the remaining binding at 0.1 µM [21] of the same molecule?
A: 93%

Q: What about the remaining binding at 1 µM [22] of the same molecule?
A: 70%

Q: And the remaining binding at 0.1 µM [23]?
A: 100%

Q: And the remaining binding at 1 µM ([24]; 1000 nM)?
A: 99%

Q: And the remaining binding at 0.1 µM ([24]; compound concentration 100 nM, Entrez NUAK1)?
A: 86%

Q: What about the remaining binding at 1 µM [25] of the same molecule?
A: 75%

Q: What about the remaining binding at 1 µM [26] of the same molecule?
A: 92%

Q: What about the remaining binding at 1 µM [27] of the same molecule?
A: 97%

Q: And the remaining binding at 1 µM [28]?
A: 85%

Q: What about the remaining binding at 0.1 µM [29] of the same molecule?
A: 100%

Q: And the remaining binding at 1 µM [30]?
A: 82%

Q: What about the remaining binding at 1 µM [31] of the same molecule?
A: 74%

Q: What about the remaining binding at 1 µM [32] of the same molecule?
A: 96%

Q: And the remaining binding at 0.1 µM [33]?
A: 76%

Q: And the remaining binding at 1 µM [34]?
A: 72%

Q: And the remaining binding at 1 µM [35]?
A: 96%
